Experimental data reported in patent US20250032488A1, “METHODS OF TREATMENT USING LOU064” (NOVARTIS AG, priority 2021, published 2025).

Experiment: LOU064 levels in blood, RPA study
Format: in vivo, mice
Procedure: Female C57BI6 mice (Charles River, France), 8-10 weeks of age, were used. The back of the mice was shaved 24 hours prior to the skin injections. This allowed any potential irritation of the skin to resolve. The Arthus reaction was triggered two hours after compound dosing in the dose-response study or at the timepoints noted in the time-course study. To elicit the Arthus reaction, 50 μl of PBS (control site) or polyclonal rabbit anti-ovalbumin IgG at a concentration of 30 μg in PBS (C6534, Sigma) was injected i.d. into the dorsal skin. The intradermal injection was followed immediately by an i.v. injection of 200 μl ovalbumin (20 mg/kg) in saline (05450 Fluka). Three hours after the injection of the ovalbumin the mice were killed, bled for monitoring of the compound concentration and the spleens removed for BTK occupancy measurement. The thickness of the injected control and anti-ovalbumin IgG skin sites was measured using a digital caliper, and the thickness of the anti-ovalbumin IgG injected sites minus the saline control sites were then calculated for the mice in all treatment groups.
Blood samples were taken as denoted and compound measurement was performed. Blood samples were spiked with a structurally similar internal standard mixed with acetonitrile (4 volumes) and centrifuged at ˜ 4000 rpm (4° C.). Supernatant was then transferred into a microtiter plate. An aliquot of each sample was injected into an LC-MS/MS system for determination of concentrations of the parent molecule.

SMILES: C=CC(=O)N(C)CCOc1c(N)ncnc1-c1cc(F)cc(NC(=O)c2ccc(C3CC3)cc2F)c1C [LOU064, N-(3-(6-amino-5-(2-(N-methylacrylamido)ethoxy)pyrimidin-4-yl)-5-fluoro-2-methylphenyl)-4-cyclopropyl-2-fluorobenzamide]
- concentration at 5 h (female, C57BI6, mouse, whole blood, oral, 3 mg/Kg single p.o., 5 hours after dosing): 2.04 nM
- concentration at 5 h (female, C57BI6, mouse, whole blood, oral, 10 mg/Kg single p.o., 5 hours after dosing, Mean ± SD): 2.87 ± 0.58 nM
- concentration at 5 h (female, C57BI6, mouse, whole blood, oral, 30 mg/Kg single p.o., 5 hours after dosing, Mean ± SD): 25.2 ± 20.9 nM
- concentration at 5 h (female, C57BI6, mouse, whole blood, oral, 100 mg/Kg single p.o., 5 hours after dosing, Mean ± SD): 140 ± 63.9 nM
- concentration at 5 h (female, C57BI6, mouse, whole blood, single oral dose of 30 mg/kg, 5 hours post-dose, Mean ± SD (n = 5)): 28.4 ± 18.2 nM
- concentration at 8 h (female, C57BI6, mouse, whole blood, single oral dose of 30 mg/kg, 8 hours post-dose, Mean ± SD (n = 5)): 9.2 ± 6.7 nM
- Concentration in blood (single oral dose of 30 mg/kg, 19 hours post-dose): Below LLOQ
